Experimental data taken from the NIST ThermoML archive (doi:10.1021/je100287g).

Experiment: cn = amount concentration of the nth substance listed, in mol/dm3
Conditions: 101 kPa, Liquid, digital conductivity meter (CM-180, Elico India)

Nc1ccc(S(=O)(=O)[N-]c2nccs2)cc1.[Na+] [sodium ((4-aminophenyl)sulfonyl)(thiazol-2-yl)amide] + O
electrical conductivity [S/m]
Conditions | c1 = 0.001 | c1 = 0.002 | c1 = 0.004 | c1 = 0.006 | c1 = 0.008 | c1 = 0.01
283 K | 0.0053 | 0.0101 | 0.0189 | 0.0281 | 0.0366 | 0.0468
293 K | 0.0064 | 0.0124 | 0.0233 | 0.0344 | 0.0447 | 0.0574
303 K | 0.0078 | 0.0151 | 0.0288 | 0.0423 | 0.0545 | 0.07
313 K | 0.00967 | 0.0195 | 0.0353 | 0.0516 | 0.0661 | 0.0866
